Source: PubChem BioAssay (NCI)
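Growth conditions: 96-well plates. Treatment: test compound, 48 hours, 5 concentrations. Analysis: linear interpolation between bracketing concentrations; unreached endpoints set to highest concentration. Definition used: TGI = concentration required for complete inhibition of growth.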

Columns and labels:
Assay in all cases: growth of human tumour cells (NCI), 48 h
786-0 renal = tested on: 786-0 renal
A549 NSCLC = tested on: A549 NSCLC
ACHN renal = tested on: ACHN renal
CCRF-CEM leukemia = tested on: CCRF-CEM leukemia
COLO 205 colon = tested on: COLO 205 colon
DLD-1 colon = tested on: DLD-1 colon
DMS 114 small cell lung = tested on: DMS 114 small cell lung
EKVX NSCLC = tested on: EKVX NSCLC
HCC-2998 colon = tested on: HCC-2998 colon
HCT-116 colon = tested on: HCT-116 colon
HL-60(TB) leukemia = tested on: HL-60(TB) leukemia
HOP-62 NSCLC = tested on: HOP-62 NSCLC
HOP-92 NSCLC = tested on: HOP-92 NSCLC
HT29 colon = tested on: HT29 colon
IGROV1 ovarian = tested on: IGROV1 ovarian
KM12 colon = tested on: KM12 colon
KM20L2 colon = tested on: KM20L2 colon
LOX IMVI melanoma = tested on: LOX IMVI melanoma
LXFL 529 NSCLC = tested on: LXFL 529 NSCLC
M14 melanoma = tested on: M14 melanoma
M19-MEL melanoma = tested on: M19-MEL melanoma
MALME-3M melanoma = tested on: MALME-3M melanoma
MOLT-4 leukemia = tested on: MOLT-4 leukemia
NCI-H226 lung = tested on: NCI-H226 lung
NCI-H23 lung = tested on: NCI-H23 lung
NCI-H460 lung = tested on: NCI-H460 lung
OVCAR-3 ovarian = tested on: OVCAR-3 ovarian
OVCAR-4 ovarian = tested on: OVCAR-4 ovarian
OVCAR-5 ovarian = tested on: OVCAR-5 ovarian
OVCAR-8 ovarian = tested on: OVCAR-8 ovarian
RPMI-8226 leukemia = tested on: RPMI-8226 leukemia
RXF 393 renal = tested on: RXF 393 renal
SF-268 CNS = tested on: SF-268 CNS
SF-295 CNS = tested on: SF-295 CNS
SK-MEL-2 melanoma = tested on: SK-MEL-2 melanoma
SK-MEL-28 melanoma = tested on: SK-MEL-28 melanoma
SK-MEL-5 melanoma = tested on: SK-MEL-5 melanoma
SN12C renal = tested on: SN12C renal
SNB-19 CNS = tested on: SNB-19 CNS
SNB-75 CNS = tested on: SNB-75 CNS
SNB-78 CNS = tested on: SNB-78 CNS
SW-620 colon = tested on: SW-620 colon
TK-10 renal = tested on: TK-10 renal
U251 CNS = tested on: U251 CNS
UACC-257 melanoma = tested on: UACC-257 melanoma
UACC-62 melanoma = tested on: UACC-62 melanoma
UO-31 renal = tested on: UO-31 renal
XF 498 CNS = tested on: XF 498 CNS

Measured: TGI

N#CC(/C(=N/NC(=O)C(=O)NN)C(=O)Nc1nc([N+](=O)[O-])cs1)c1ccc(Cl)cc1 (stereo not drawn)
> 100 µM: all assays above
